Values quoted from earlier work, collected in US11980685B1, “Liquid pharmaceutical formulations of tafamidis” (TaP Pharmaceuticals, AG, priority 2022, dated 2024).
Values after ≈ are worked out from the molar mass of the structure shown. Read-outs that look alike come from different tables or passages of the source.

Experiments:
[1] = 20 mg in 3.0 mL, equilibrated 1 h, UHPLC

O=C(O)c1ccc2nc(-c3cc(Cl)cc(Cl)c3)oc2c1 [′441 patent's tafamidis crystal form 1]
Concentration of tafamidis in saturated solution (solubility) ([1]; FaSSIF): 9.0 µg/mL | Concentration of tafamidis in saturated solution (solubility) ([1]; FeSSIF): 0.6 µg/mL | Concentration of tafamidis in saturated solution (solubility) ([1]; SGF): 1.5 µg/mL

O=C(O)c1ccc2nc(-c3cc(Cl)cc(Cl)c3)oc2c1 [Tafamidis, 2-(3,5-dichlorophenyl)-1,3-benzoxazole-6-carboxylic acid]
Solubility (pH 2.6, 0.02M Acetate-phosphate buffer): <2 µg/mL | Solubility (pH 5.3, 0.02M Acetate-phosphate buffer): <2 µg/mL | Solubility (pH 6.3, 0.02M Acetate-phosphate buffer): 2 µg/mL (≈ 6.49 µM) | Solubility (pH 7.0, 0.02M Acetate-phosphate buffer): 15.8 µg/mL (≈ 51.3 µM) | Solubility (pH 7.6, 0.02M Acetate-phosphate buffer as printed): 17.5 µg/mL (≈ 56.8 µM) | Solubility (pH 7.8, 0.02M Acetate-phosphate buffer): 72.8 µg/mL (≈ 236 µM) | Solubility (pH 8.0, 0.02M Acetate-phosphate buffer): 140 µg/mL (≈ 454 µM) | Solubility classification per the BCS criteria (statement of the NDA 212161 applicant on Table F): poorly soluble drug substance
